Measured values as given in patent publication US20230414556A1, “NANO-HEPATIC TARGETED EPIGALLOCATECHIN GALLATE IN DYSLIPIDEMIA” (priority 2022, published 2023).
Where two headings read alike, the source gives them in different places.

What was measured:
[1] = Plasma lipid profile in high-fat diet mice (nutritionally induced hypercholesterolemia model); type: in vivo, C57BL/6 mice; conditions: oral
Procedure: High fat diet male C57BL/6 mice aged 4-5 weeks and weighing 20-25 g were purchased from Taconic Biosciences, Inc. (Germantown, NY, USA). All animal studies were conducted at the animal facility of the Veteran Affairs Medical Center (VAMC) (Albany, NY, USA) in accordance with institutional guidelines for humane animal treatment and approved by the Institutional Animal Care & Use Committee (IACUC) at VAMC. Animals were maintained under specific pathogen-free conditions and housed under controlled conditions of temperature (20-24° C.) and humidity (60-70%) and 12 h light/dark cycle with ad libitum access to water and food. The mice were grouped into five arms (n=5). Administrated orally to the mice were water for vehicle control (VCtrl), Void nanoparticle (void NP), EGCG (30 mg/kg), Nano EGCG (NP-EGCG) and Nano-targeted EGCG (NPT-EGCG) at 30 mg/kg equivalent EGCG for 3 weeks. Blood was collected from retro-orbital after the 24 h, week 1, week 2 and week 3 treatment to measure the levels of plasma total cholesterol, LDL-C, HDL, free and cholesteryl esters. Animals were humanely sacrificed, and liver tissue was collected. The plasma contents of total cholesterol, LDL-C, HDL-C, free and cholesteryl esters were measured with the Cholesterol-HDL and LDL/VLDL assay kit according to the manufacturer's instructions (Abcam, Boston, MA, USA). Statistical analysis was performed using GraphPad Prism (San Diego, CA, USA) (Wilkinson, 1956). All data are presented as mean±standard deviation of the mean. The Mann-Whitney nonparametric test was used to determine differences in the groups. ***P<0.001, **P<0.01, *P<0.05 were considered as significant.

[2] = cited from earlier work
[3] = target: T1, Hydroxy-3-methyl-glutaryl-CoA reductase (HMGR) (Homo sapiens, UniProt P04035); conditions: competitive binding to the cofactor site; cited from earlier work
T1 sequence (P04035 426-888 limits assumed): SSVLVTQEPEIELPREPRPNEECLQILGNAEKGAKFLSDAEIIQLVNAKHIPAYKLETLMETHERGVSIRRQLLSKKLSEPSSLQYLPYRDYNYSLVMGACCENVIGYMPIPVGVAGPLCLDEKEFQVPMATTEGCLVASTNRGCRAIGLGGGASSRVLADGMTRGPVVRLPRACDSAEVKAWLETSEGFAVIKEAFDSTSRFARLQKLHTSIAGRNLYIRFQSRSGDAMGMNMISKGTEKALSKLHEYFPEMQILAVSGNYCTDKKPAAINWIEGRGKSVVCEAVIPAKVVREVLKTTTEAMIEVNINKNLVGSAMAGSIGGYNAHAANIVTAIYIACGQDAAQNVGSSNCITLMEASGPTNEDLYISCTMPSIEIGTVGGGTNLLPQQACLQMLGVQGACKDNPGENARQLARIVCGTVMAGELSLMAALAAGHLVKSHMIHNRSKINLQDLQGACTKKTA

[4] = 30 mg/kg, week 3, compared to vehicle control and void NP

Question: Which “decrease of plasma total cholesterol” value ([1]; 30 mg/kg (equivalent) EGCG, week 3, compared to vehicle control and void NP) does the source give for (−)-epigallocatechin gallate [EGCG] here?
Answer: The value was 28%.

Question: And the “plasma cholesteryl esters (in words)” value ([1]; 30 mg/kg, week 2 and week 3)?
Answer: Its value is “significant decrease”.

Question: What about the “decrease in plasma LDL-C” value ([1]; 30 mg/kg, week 3) of the same substance?
Answer: The value was 3%.

Question: And the “increase in plasma HDL-C” value ([1]; 30 mg/kg, week 3)?
Answer: Its value is 10%.

Question: What about the “levels of free cholesterol in plasma (in words)” value [1, 4] of the same substance?
Answer: The value was “significant decrease”.

Question: What about the “reduction of plasma cholesteryl esters” value [1, 4] of the same substance?
Answer: Its value is 30%.

Question: What about the “reduction of plasma free cholesterol” value [1, 4] of the same substance?
Answer: The value was 11%.

Question: What about the “stability of EGCG” value ([2]; acidic solutions (pH<4)) of the same substance?
Answer: The value was “very stable”.

Question: And the “stability of EGCG” value ([2]; neutral and alkaline solutions)?
Answer: Its value is “extremely unstable and degraded almost completely in a few minutes”.

Question: And the “inhibition of in vitro activity of HMGR” value [3]?
Answer: The value was “potently inhibits”.
